Assays:
[1] = Plasma pharmacokinetics of vinorelbine and deacetylvinorelbine after oral vinorelbine in CES2-modified mice; assay type: in vivo, mouse; conditions: oral vinorelbine 10 mg/kg; for AUC0-4h / AUC0-4h ratio (× 10^−3) (deacetylvinorelbine/vinorelbine) / Cmax / Tmax: plasma
Protocol: (§1) For capecitabine 2-h experiments, 6–7 female mice received oral capecitabine (500 mg/kg, 10 μL/g), and tail vein blood samples were collected at 0.125, 0.25, 0.5 and 1 h after drug administration. For the vinorelbine 4-h experiment, 6-7 male mice received vinorelbine intravenously (10 mg/kg, 5 μL/g) or orally (10 mg/kg, 10 μL/g) using a blunt-ended needle. Tail vein blood samples were collected at 0.125, 0.25, 0.5, 1 and 2 h after drug administration. […] At the last time point in each experiment (2 or 4 h), mice were anesthetized with 5% isoflurane and blood was collected by cardiac puncture. […] Plasma was isolated from the blood by centrifugation at 9000 × g for 6 min at 4 °C, and the plasma fraction was collected and stored at −30 °C until analysis.
(§2) Concentrations of capecitabine (and its metabolites) and vinorelbine (and its metabolite) in mouse plasma samples and organ homogenates were determined using two independent validated high-performance liquid chromatography-tandem mass spectrometry assays.
(§3) Pharmacokinetic parameters were calculated by non-compartmental methods using the PK solver software. […] Differences were considered statistically significant when P < 0.05. All data are presented as mean ± SD.

[2] = Plasma pharmacokinetics of vinorelbine and deacetylvinorelbine after i.v. vinorelbine in CES2-modified mice; conditions: i.v. vinorelbine 10 mg/kg; for AUC0-4h / AUC0-4h ratio (× 10^−3) (deacetylvinorelbine/vinorelbine) / Cmax / Tmax: plasma
Protocol: In order to minimize variation among individuals, mice were fasted for 3 h before drug was administered orally or intravenously. […] For the vinorelbine 4-h experiment, 6-7 male mice received vinorelbine intravenously (10 mg/kg, 5 μL/g) or orally (10 mg/kg, 10 μL/g) using a blunt-ended needle. […] Time points of termination were chosen to allow both reasonable assessment of the plasma exposure of the compound and its main metabolites, and adequate measurement of tissue concentrations. In order to minimize the generation and use of mice, and as no pronounced sex differences were expected, female mice were used for the capecitabine studies and male mice for the vinorelbine studies. Tail vein blood sample collection (~50 μL) was performed using microvettes containing dipotassium-EDTA. All blood samples were rapidly placed on ice to limit any ongoing hydrolysis. At the last time point in each experiment (2 or 4 h), mice were anesthetized with 5% isoflurane and blood was collected by cardiac puncture. Cardiac puncture blood samples (600–800 μL) were collected in Eppendorf tubes containing heparin as an anticoagulant. The mice were then sacrificed by cervical dislocation and brain, liver, kidney, lung, small intestine and testis were rapidly removed. Plasma was isolated from the blood by centrifugation at 9000 × g for 6 min at 4 °C, and the plasma fraction was collected and stored at −30 °C until analysis. Organs were homogenized with 4% (w/v) bovine serum albumin and stored at −30 °C until analysis. Relative metabolite-to-parental drug ratio after drug administration was calculated by determining metabolite tissue concentration relative to corresponding parental drug concentration at the last time point.
as §2
Pharmacokinetic parameters were calculated by non-compartmental methods using the PK solver software. The area under the plasma concentration-time curve (AUC) was calculated using the trapezoidal rule, without extrapolating to infinity. The peak plasma concentration (Cmax) and the time of maximum plasma concentration (Tmax) were estimated from the original (individual mouse) data. One-way analysis of variance (ANOVA) was used when multiple groups were compared and the Tukey’s test post hoc correction was used to accommodate multiple testing. The two-sided unpaired Student’s t-test was used when treatments or differences between two specific groups were compared. Kruskal-Wallis rank test was used for semi-quantitative assessment for (H&E)-staining of white adipose tissue and Oil Red O-staining of liver. All statistical analyses were performed using the software GraphPad Prism 8 (GraphPad Software Inc., La Jolla, CA, USA). All the linear data were log-transformed before statistical tests were applied. Differences were considered statistically significant when P < 0.05. All data are presented as mean ± SD.

[3] = Tissue concentrations of vinorelbine and deacetylvinorelbine 4 h after oral vinorelbine in CES2-modified mice; assay type: in vivo, mouse; conditions: oral vinorelbine 10 mg/kg
Protocol: as §1, §2, §3

Structure (SMILES): CCC1=C[C@@H]2CN(C1)Cc1c([nH]c3ccccc13)[C@@](C(=O)OC)(c1cc3c(cc1OC)N(C)[C@H]1[C@@](O)(C(=O)OC)[C@H](O)[C@]4(CC)C=CCN5CC[C@]31[C@@H]54)C2 [Deacetylvinorelbine, 4’-O-deacetylvinorelbine]
- AUC0-4h ([1]; male Ces2^–/– mice): 1.0 ± 0.4 ng·h/mL
- AUC0-4h ratio (× 10^−3) (deacetylvinorelbine/vinorelbine) ([1]; male Ces2^–/– mice): 2.0 ± 0.4 × 10^−3
- Cmax ([1]; male Ces2^–/– mice): 0.42 ± 0.15 ng/mL
- Tmax ([1]; male Ces2^–/– mice): 3.7 ± 0.8 h
- AUC0-4h ([1]; male Ces2^–/–A mice): 3.7 ± 2.2 ng·h/mL
- AUC0-4h ratio (× 10^−3) (deacetylvinorelbine/vinorelbine) ([1]; male Ces2^–/–A mice): 6.3 ± 7.8 × 10^−3
- Cmax ([1]; male Ces2^–/–A mice): 1.5 ± 1.1 ng/mL
- Tmax ([1]; male Ces2^–/–A mice): 2.6 ± 1.0 h
- AUC0-4h ([1]; male Ces2^–/–V mice): 3.3 ± 2.3 ng·h/mL
- AUC0-4h ratio (× 10^−3) (deacetylvinorelbine/vinorelbine) ([1]; male Ces2^–/–V mice): 5.3 ± 1.9 × 10^−3
- Cmax ([1]; male Ces2^–/–V mice): 1.4 ± 1.2 ng/mL
- Tmax ([1]; male Ces2^–/–V mice): 2.7 ± 1.0 h
- plasma AUC0-4h, fold increase in Ces2^–/–A compared with Ces2^–/– mice ([1]; male mice): 3.7 fold
- plasma AUC0-4h, fold increase in Ces2^–/–V compared with Ces2^–/– mice ([1]; male mice): 3.3 fold
- AUC0-4h ([1]; male wild-type mice): 238 ± 112 ng·h/mL
- AUC0-4h ratio (× 10^−3) (deacetylvinorelbine/vinorelbine) ([1]; male wild-type mice): 640 ± 170 × 10^−3
- Cmax ([1]; male wild-type mice): 91 ± 44 ng/mL
- Tmax ([1]; male wild-type mice): 1.7 ± 0.7 h
- AUC0-4h ([2]; male Ces2^–/– mice): 10.1 ± 2.3 ng·h/mL
- AUC0-4h ratio (× 10^−3) (deacetylvinorelbine/vinorelbine) ([2]; male Ces2^–/– mice): 1.7 ± 0.2 × 10^−3
- Cmax ([2]; male Ces2^–/– mice): 5.9 ± 1.4 ng/mL
- Tmax ([2]; male Ces2^–/– mice): 7.8 ± 0 min
- plasma AUC0-4h, fold decrease vs wild-type ([2]; male Ces2^–/–A mice): 55.5 fold
- AUC0-4h ([2]; male Ces2^–/–A mice): 12.0 ± 3.8 ng·h/mL
- AUC0-4h ratio (× 10^−3) (deacetylvinorelbine/vinorelbine) ([2]; male Ces2^–/–A mice): 2.2 ± 0.5 × 10^−3
- Cmax ([2]; male Ces2^–/–A mice): 7.6 ± 2.7 ng/mL
- Tmax ([2]; male Ces2^–/–A mice): 15 ± 11.4 min
- plasma AUC0-4h, fold decrease vs wild-type ([2]; male Ces2^–/–V mice): 41.1 fold
- AUC0-4h ([2]; male Ces2^–/–V mice): 16.2 ± 8.4 ng·h/mL
- AUC0-4h ratio (× 10^−3) (deacetylvinorelbine/vinorelbine) ([2]; male Ces2^–/–V mice): 1.7 ± 0.2 × 10^−3
- Cmax ([2]; male Ces2^–/–V mice): 8.2 ± 3.5 ng/mL
- Tmax ([2]; male Ces2^–/–V mice): 10.2 ± 4.2 min
- AUC0-4h ([2]; male wild-type mice): 666 ± 138 ng·h/mL
- AUC0-4h ratio (× 10^−3) (deacetylvinorelbine/vinorelbine) ([2]; male wild-type mice): 110 ± 60 × 10^−3
- Cmax ([2]; male wild-type mice): 346 ± 104 ng/mL
- Tmax ([2]; male wild-type mice): 27.6 ± 45.6 min
- CSI (small intestine tissue concentration) ([3]; male Ces2^–/– mice): 625 ± 219 ng/g
- CSIC (small intestine contents concentration) ([3]; male Ces2^–/– mice): 1091 ± 405 ng/g
- Ccolon (colon concentration) ([3]; male Ces2^–/– mice): 5.0 ± 2.1 ng/g
- Cliver (liver concentration) ([3]; male Ces2^–/– mice): 82 ± 29 ng/g
- Colon Ratio (x 10^-3) (deacetylvinorelbine /vinorelbine) ([3]; male Ces2^–/– mice): 8.4 ± 1.5 x 10^-3
- Liver Ratio (x 10^-3) (deacetylvinorelbine /vinorelbine) ([3]; male Ces2^–/– mice): 15 ± 7.5 x 10^-3
- Small intestine Ratio (x 10^-3) (deacetylvinorelbine /vinorelbine) ([3]; male Ces2^–/– mice): 34 ± 10.0 x 10^-3
- Small intestine contents Ratio (x 10^-3) (deacetylvinorelbine /vinorelbine) ([3]; male Ces2^–/– mice): 6.7 ± 1.4 x 10^-3
- liver deacetylvinorelbine-to-vinorelbine ratio, fold decrease vs wild-type ([3]; male Ces2^–/– mice): 333 fold
- small intestine tissue deacetylvinorelbine-to-vinorelbine ratio ([3]; male Ces2^–/– mice): 0.034 ± 0.010
- CSI (small intestine tissue concentration) ([3]; male Ces2^–/–A mice): 748 ± 225 ng/g
- CSIC (small intestine contents concentration) ([3]; male Ces2^–/–A mice): 1120 ± 623 ng/g
- Ccolon (colon concentration) ([3]; male Ces2^–/–A mice): 6.0 ± 2.6 ng/g
- Cliver (liver concentration) ([3]; male Ces2^–/–A mice): 162 ± 52 ng/g
- Colon Ratio (x 10^-3) (deacetylvinorelbine /vinorelbine) ([3]; male Ces2^–/–A mice): 7.8 ± 2.6 x 10^-3
- Liver Ratio (x 10^-3) (deacetylvinorelbine /vinorelbine) ([3]; male Ces2^–/–A mice): 19 ± 1.7 x 10^-3
- Small intestine Ratio (x 10^-3) (deacetylvinorelbine /vinorelbine) ([3]; male Ces2^–/–A mice): 39 ± 8.0 x 10^-3
- Small intestine contents Ratio (x 10^-3) (deacetylvinorelbine /vinorelbine) ([3]; male Ces2^–/–A mice): 5.9 ± 1.6 x 10^-3
- liver deacetylvinorelbine-to-vinorelbine ratio, fold decrease vs wild-type ([3]; male Ces2^–/–A mice): 263 fold
- small intestine tissue deacetylvinorelbine-to-vinorelbine ratio ([3]; male Ces2^–/–A mice): 0.039 ± 0.008
- CSI (small intestine tissue concentration) ([3]; male Ces2^–/–V mice): 808 ± 578 ng/g
- CSIC (small intestine contents concentration) ([3]; male Ces2^–/–V mice): 957 ± 441 ng/g

From article PMC11845761, “Intestinal human carboxylesterase 2 (CES2) expression rescues drug metabolism and most metabolic syndrome phenotypes in global Ces2 cluster knockout mice” (Acta Pharmacologica Sinica, 2024)
